Measurements reported in ChEMBL document CHEMBL1770085, “Homodimeric bis-quaternary heterocyclic ammonium salts as potent acetyl- and butyrylcholinesterase inhibitors: a systematic investigation of the influence of linker and cationic heads over affinity and selectivity” (J Med Chem, 2011).

What was measured:
[1] = Selectivity index, ratio of IC50 for equine BChE to IC50 for bovine AChE
Acetylcholinesterase [2] = target: T1, Acetylcholinesterase (Bos taurus, UniProt P23795)
T1 sequence (P23795 whole entry): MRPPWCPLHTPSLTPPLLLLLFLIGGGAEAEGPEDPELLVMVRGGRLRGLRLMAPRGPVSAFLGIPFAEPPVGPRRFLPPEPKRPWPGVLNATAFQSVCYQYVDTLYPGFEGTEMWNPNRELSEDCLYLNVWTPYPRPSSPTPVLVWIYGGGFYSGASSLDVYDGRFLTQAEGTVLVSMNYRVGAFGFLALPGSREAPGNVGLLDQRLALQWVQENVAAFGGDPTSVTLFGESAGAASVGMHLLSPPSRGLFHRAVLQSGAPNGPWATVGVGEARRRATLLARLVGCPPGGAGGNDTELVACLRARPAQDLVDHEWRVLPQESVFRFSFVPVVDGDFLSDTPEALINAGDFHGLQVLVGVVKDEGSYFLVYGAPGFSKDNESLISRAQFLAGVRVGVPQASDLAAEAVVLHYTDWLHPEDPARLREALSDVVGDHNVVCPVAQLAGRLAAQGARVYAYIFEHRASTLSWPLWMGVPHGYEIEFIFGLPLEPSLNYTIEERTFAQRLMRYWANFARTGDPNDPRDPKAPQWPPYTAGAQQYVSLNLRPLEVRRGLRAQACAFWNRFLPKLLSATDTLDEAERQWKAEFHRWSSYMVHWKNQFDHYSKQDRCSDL
Description: Inhibition of bovine AChE after 20 mins using acetylthiocholine iodide as a substrate by Ellman's assay

Butyrylcholinesterase = Butyrylcholinesterase (Equus caballus, UniProt Q9N1N9)
Sequence of Butyrylcholinesterase (Q9N1N9 whole entry): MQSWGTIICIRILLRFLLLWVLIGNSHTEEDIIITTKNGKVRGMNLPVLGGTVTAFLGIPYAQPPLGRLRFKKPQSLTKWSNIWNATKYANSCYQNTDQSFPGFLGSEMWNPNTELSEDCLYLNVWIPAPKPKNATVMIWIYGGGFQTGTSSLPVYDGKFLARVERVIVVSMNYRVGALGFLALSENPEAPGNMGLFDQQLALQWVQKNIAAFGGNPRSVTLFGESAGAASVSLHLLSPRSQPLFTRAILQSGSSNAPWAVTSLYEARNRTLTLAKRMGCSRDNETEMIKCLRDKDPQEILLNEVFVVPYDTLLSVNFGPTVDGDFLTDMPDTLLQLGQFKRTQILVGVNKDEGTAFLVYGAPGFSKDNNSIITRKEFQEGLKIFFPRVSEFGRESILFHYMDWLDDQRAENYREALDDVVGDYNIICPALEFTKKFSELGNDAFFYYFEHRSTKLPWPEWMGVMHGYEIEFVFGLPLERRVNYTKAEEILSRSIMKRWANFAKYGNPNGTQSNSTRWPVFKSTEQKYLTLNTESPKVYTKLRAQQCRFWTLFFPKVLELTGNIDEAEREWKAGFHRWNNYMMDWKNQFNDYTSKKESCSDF
Description: Inhibition of equine BChE after 20 mins using butyrylthiocholine iodide as a substrate by Ellman's assay

Acetylcholinesterase [3] = target: Acetylcholinesterase (Homo sapiens, UniProt P22303)
Sequence of Acetylcholinesterase (Homo sapiens, UniProt P22303) (P22303 whole entry): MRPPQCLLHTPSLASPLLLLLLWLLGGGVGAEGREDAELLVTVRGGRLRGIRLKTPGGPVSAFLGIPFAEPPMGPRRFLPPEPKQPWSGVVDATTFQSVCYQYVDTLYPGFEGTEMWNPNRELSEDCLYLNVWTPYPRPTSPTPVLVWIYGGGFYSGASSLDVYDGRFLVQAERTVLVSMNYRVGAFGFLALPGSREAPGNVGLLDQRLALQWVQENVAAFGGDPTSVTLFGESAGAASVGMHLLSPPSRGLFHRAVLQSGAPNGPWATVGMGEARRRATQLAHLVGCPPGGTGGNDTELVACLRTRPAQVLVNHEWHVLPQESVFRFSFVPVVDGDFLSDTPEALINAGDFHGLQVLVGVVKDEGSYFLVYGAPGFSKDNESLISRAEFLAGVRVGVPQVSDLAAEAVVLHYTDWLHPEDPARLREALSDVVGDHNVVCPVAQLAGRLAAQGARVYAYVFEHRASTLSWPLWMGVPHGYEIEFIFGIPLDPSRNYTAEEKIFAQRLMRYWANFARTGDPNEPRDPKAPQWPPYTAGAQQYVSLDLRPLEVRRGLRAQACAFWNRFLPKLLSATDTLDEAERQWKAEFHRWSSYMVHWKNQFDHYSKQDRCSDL
Description: Inhibition of human recombinant AChE after 20 mins using acetylthiocholine iodide as a substrate by Ellman's assay

Cholinesterase = Cholinesterase (Homo sapiens, UniProt P06276)
Sequence of Cholinesterase (P06276 whole entry): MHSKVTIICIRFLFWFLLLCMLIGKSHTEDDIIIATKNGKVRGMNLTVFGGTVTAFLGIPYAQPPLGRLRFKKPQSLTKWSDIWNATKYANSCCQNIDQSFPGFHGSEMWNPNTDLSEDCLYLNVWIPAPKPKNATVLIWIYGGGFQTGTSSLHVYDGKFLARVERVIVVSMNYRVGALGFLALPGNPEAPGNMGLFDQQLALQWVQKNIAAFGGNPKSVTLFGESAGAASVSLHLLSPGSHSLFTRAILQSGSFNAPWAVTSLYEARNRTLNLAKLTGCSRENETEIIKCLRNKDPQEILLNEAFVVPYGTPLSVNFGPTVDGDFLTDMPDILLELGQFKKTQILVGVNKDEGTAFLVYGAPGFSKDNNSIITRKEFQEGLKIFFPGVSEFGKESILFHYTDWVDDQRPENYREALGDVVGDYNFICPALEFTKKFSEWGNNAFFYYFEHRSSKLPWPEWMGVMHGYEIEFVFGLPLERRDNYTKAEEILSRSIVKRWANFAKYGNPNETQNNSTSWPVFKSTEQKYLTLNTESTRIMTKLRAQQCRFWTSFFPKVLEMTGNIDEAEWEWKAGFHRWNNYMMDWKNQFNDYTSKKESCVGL
Description: Inhibition of human BChE after 20 mins using butyrylthiocholine iodide as a substrate by Ellman's assay

[4] = target: T2, Acetylcholinesterase (Bos taurus) (UniProt P23795); assay: Inhibition of bovine AChE at 10 uM after 20 mins using acetylthiocholine iodide as a substrate by Ellman's assay
T2 sequence (whole entry): T1 sequence (P23795 whole entry)

SMILES	Ratio IC50 [1]	IC50 (Acetylcholinesterase [2]) [µM]	IC50 (Butyrylcholinesterase) [µM]	IC50 (Acetylcholinesterase [3]) [µM]	IC50 (Cholinesterase) [µM]	inhibition [4] [%]
CN(c1ccccc1)c1cc[n+](Cc2cccc(C[n+]3ccc(N(C)c4ccccc4)cc3)c2)cc1	0.79	1.15	0.91			
OC1C[N+]2(Cc3ccc(/C=C/c4ccc(C[N+]56CCC(CC5)C(O)C6)cc4)cc3)CCC1CC2 (centres undefined)	38	0.141	5.34			
c1cc(C[N+]23CCC(CC2)CC3)cc(-c2cccc(C[N+]34CCC(CC3)CC4)c2)c1	0.081	1.1	0.089	0.62	0.036	
c1cc(C[n+]2ccc(N3CCOCC3)cc2)ccc1CCc1ccc(C[n+]2ccc(N3CCOCC3)cc2)cc1	1.7	2.67	4.48			
c1ccc(-c2cc[n+](Cc3cccc(-c4cccc(C[n+]5ccc(-c6ccccc6)cc5)c4)c3)cc2)cc1	1.4	0.553	0.797			
CN(C)c1cc[n+](Cc2cccc(C[n+]3ccc(N(C)C)cc3)c2)cc1	19	0.39	7.56			
OC1C[N+]2(Cc3ccc(CCc4ccc(C[N+]56CCC(CC5)C(O)C6)cc4)cc3)CCC1CC2 (centres undefined)	22	0.097	2.09			
CN(c1cc[n+](Cc2ccc(C[n+]3ccc(N(C)c4cc(Cl)cc(Cl)c4)cc3)cc2)cc1)c1cc(Cl)cc(Cl)c1	0.31	5.2	1.6			
CN(c1cc[n+](Cc2ccc(-c3ccc(C[n+]4ccc(N(C)c5cc(Cl)cc(Cl)c5)cc4)cc3)cc2)cc1)c1cc(Cl)cc(Cl)c1	0.19	2.87	0.55			
c1cc(C[n+]2ccc(N3CCCCC3)cc2)ccc1Cc1ccc(C[n+]2ccc(N3CCCCC3)cc2)cc1	0.75	0.083	0.062			
c1cc(C[n+]2ccc(N3CCCCC3)cc2)ccc1C[n+]1ccc(N2CCCCC2)cc1	9.5	0.072	0.682	0.075	0.61	
CN(C)c1cc[n+](Cc2ccc(C[n+]3ccc(N(C)C)cc3)cc2)cc1	7.6	1.31				
c1cc(C[n+]2ccc(N3CCCC3)cc2)ccc1C[n+]1ccc(N2CCCC2)cc1	3.9	0.336	1.3			
Cc1c[n+](Cc2cccc(-c3cccc(C[n+]4cc(C)c(N)c5ccccc54)c3)c2)c2ccccc2c1N	0.12	0.497	0.059			
c1ccc(C[n+]2ccc(N3CCCC3)cc2)cc1		5.53				
c1cc(C[n+]2ccc(N3CCCC3)cc2)ccc1CCCc1ccc(C[n+]2ccc(N3CCCC3)cc2)cc1	3.6	0.081	0.292			
CN(C)c1cc[n+](Cc2ccc(CCc3ccc(C[n+]4ccc(N(C)C)cc4)cc3)cc2)cc1	2.2	0.628	1.36			
COc1cc2c(cc1OC)CN(c1cc[n+](Cc3ccc(C[n+]4ccc(N5CCc6cc(OC)c(OC)cc6C5)cc4)cc3)cc1)CC2	0.7	1.95	1.37			
Nc1cc[n+](Cc2ccc(CCc3ccc(C[n+]4ccc(N)c5ccccc54)cc3)cc2)c2ccccc12	0.92	0.672	0.62			
c1cc(-c2ccc(C[n+]3ccc(N4CCCC4)cc3)cc2)ccc1C[n+]1ccc(N2CCCC2)cc1	14	0.09	1.27			
c1cc(C[n+]2ccc(N3CCCCC3)cc2)ccc1CCc1ccc(C[n+]2ccc(N3CCCCC3)cc2)cc1	1.6	0.079	0.13			
c1cc(C[n+]2ccc(NC3CCCCC3)cc2)ccc1CCCCc1ccc(C[n+]2ccc(NC3CCCCC3)cc2)cc1	2.1	0.1	0.206			
C(=C\c1ccc(C[n+]2ccc(N3CCCCC3)cc2)cc1)/c1ccc(C[n+]2ccc(N3CCCCC3)cc2)cc1	0.42	0.582	0.247			
CN(C)c1cc[n+](C[C@@H]2C[C@H]2C[n+]2ccc(N(C)C)cc2)cc1 (relative stereo)		8.78				
c1cc2cc(c1)C[n+]1ccc(cc1)NCc1ccc(cc1)CNc1cc[n+](cc1)C2	0.22	3.9	0.85			
Cc1ccc(C[n+]2ccc(N)c3ccccc32)cc1						34

SMILES	Ratio IC50 [1]	IC50 (Acetylcholinesterase [2]) [µM]	IC50 (Butyrylcholinesterase) [µM]	IC50 (Acetylcholinesterase [3]) [µM]	IC50 (Cholinesterase) [µM]	inhibition [4] [%]
c1cc(C[n+]2ccc(N3CCCCC3)cc2)cc(C[n+]2ccc(N3CCCCC3)cc2)c1	2.9	0.114	0.335			
Cc1ccc(C[n+]2ccc(N3CCCC3)cc2)cc1						52
OC1C[N+]2(Cc3cccc(-c4cccc(C[N+]56CCC(CC5)C(O)C6)c4)c3)CCC1CC2 (centres undefined)	0.11		1.15			55.8
c1cc(C[n+]2ccc(N3CCCCC3)cc2)cc(-c2cccc(C[n+]3ccc(N4CCCCC4)cc3)c2)c1	6.9	0.026	0.179	0.06	0.33	
CN(c1ccc(Cl)cc1)c1cc[n+](Cc2ccc(-c3ccc(C[n+]4ccc(N(C)c5ccc(Cl)cc5)cc4)cc3)cc2)cc1	0.22	3.07	0.683			
COc1cc2c(cc1OC)CN(c1cc[n+](Cc3cccc(C[n+]4ccc(N5CCc6cc(OC)c(OC)cc6C5)cc4)c3)cc1)CC2	0.42	2.1	0.89			
c1cc(C[n+]2ccc(N3CCCCCC3)cc2)ccc1CCc1ccc(C[n+]2ccc(N3CCCCCC3)cc2)cc1	3.2	0.086	0.274			
c1ccc2c(c1)CCN(c1cc[n+](Cc3ccc(-c4ccc(C[n+]5ccc(N6CCc7ccccc7C6)cc5)cc4)cc3)cc1)C2	0.92	0.346	0.318			
COc1cc2c(cc1OC)CN(c1cc[n+](Cc3cccc(-c4cccc(C[n+]5ccc(N6CCc7cc(OC)c(OC)cc7C6)cc5)c4)c3)cc1)CC2	2.3	0.519	1.17			
CN(c1cc[n+](Cc2cc(C[n+]3ccc(N(C)c4cc(Cl)cc(Cl)c4)cc3)cc(C[n+]3ccc(N(C)c4cc(Cl)cc(Cl)c4)cc3)c2)cc1)c1cc(Cl)cc(Cl)c1	0.38	1.77	0.679			
c1cc(-c2ccc(C[n+]3ccc(N4CCCCC4)cc3)cc2)ccc1C[n+]1ccc(N2CCCCC2)cc1	2.7	0.16	0.43			
Cc1c2c(C)c3c(C)c1C[n+]1ccc(cc1)NCc1cc(cc(c1)CNc1cc[n+](cc1)C3)CNc1cc[n+](cc1)C2	0.14	3.68	0.516			
CN(C)c1cc[n+](Cc2ccc(CCCCc3ccc(C[n+]4ccc(N(C)C)cc4)cc3)cc2)cc1	1.5	0.252	0.372			
c1cc(C[n+]2ccc(C3CCCCC3)cc2)cc(-c2cccc(C[n+]3ccc(C4CCCCC4)cc3)c2)c1	8.2	0.134	1.09			
c1cc(C[n+]2ccc(N3CCCC3)cc2)ccc1CCc1ccc(C[n+]2ccc(N3CCCC3)cc2)cc1	1.9	0.385	0.735			
c1ccc2c(c1)CCN(c1cc[n+](Cc3ccc(C[n+]4ccc(N5CCc6ccccc6C5)cc4)cc3)cc1)C2	2.6	0.126	0.327			
c1cc(C[n+]2ccc(N3CCCCC3)cc2)ccc1CCCc1ccc(C[n+]2ccc(N3CCCCC3)cc2)cc1	0.91	0.163	0.149			
c1cc(C[n+]2ccc(N3CCCC3)cc2)ccc1CCCCc1ccc(C[n+]2ccc(N3CCCC3)cc2)cc1	6.5	0.104	0.671			
CN(c1ccc(Cl)cc1)c1cc[n+](Cc2cccc(-c3cccc(C[n+]4ccc(N(C)c5ccc(Cl)cc5)cc4)c3)c2)cc1	0.28	1.78	0.496			
c1cc(C[n+]2ccc(N3CCCCCC3)cc2)ccc1CCCc1ccc(C[n+]2ccc(N3CCCCCC3)cc2)cc1	0.81	0.202	0.163			
CN(C)c1cc[n+](Cc2cc(C[n+]3ccc(N(C)C)cc3)cc(C[n+]3ccc(N(C)C)cc3)c2)cc1	3.6	2.75				
COc1cc2c(cc1OC)CN(c1cc[n+](Cc3ccc(-c4ccc(C[n+]5ccc(N6CCc7cc(OC)c(OC)cc7C6)cc5)cc4)cc3)cc1)CC2	16	0.094	1.53			
c1cc(C[n+]2ccc(N3CCc4ccccc4C3)cc2)cc(C[n+]2ccc(N3CCc4ccccc4C3)cc2)c1	0.68	0.281	0.19			
c1cc(C[n+]2ccc(N3CCCC3)cc2)cc(-c2cccc(C[n+]3ccc(N4CCCC4)cc3)c2)c1	13	0.039	0.518			
c1cc(C[n+]2ccc(N3CCCC3)cc2)ccc1Cc1ccc(C[n+]2ccc(N3CCCC3)cc2)cc1	3.1	0.183	0.576			
